From patent publication US9096538B2, “Pharmaceutical comprising PPAR agonist” (Senju Pharmaceutical Co., Ltd., priority 2005, dated 2015) come the findings set out here.

The subject of this test is rabbit corneal epithelial cell. As to the kind of experiment: Test Example 2: increase in cell number, cultured rabbit corneal epithelial cell, 120 hours (Cell Counting Kit-8). Conditions: no addition group = 100%, average ± standard deviation, N = 5. The class given is cell-based. The protocol: A male rabbit (Japanese white, weight: about 1.5 kg, […] LABES Co., Ltd.) was used. The experimental animal was used according to the International Guiding Principles for Biomedical Research Involving Animals.
A rabbit corneal epithelial cell was prepared using the same process as that of (Test example 1).
As the test substance, the following compounds were used. • PPARδ agonist: L-165041 (Sigma-Aldrich) and GW-501516 (Alexis)
For studying the effect of promoting cell proliferation by each test substance, a culture medium prepared by removing a mouse-derived epithelial growth factor (mEGF) attached to RCGM2, from RCGM2, was used as a basal medium, while as a positive control for confirming the effect of promoting cell proliferation, a medium with an mEGF added thereto (basal medium+10 ng/mL mEGF) was used according to instructions of an RCGM2 preparation protocol.
Collagen treatment of the culture dish was performed using the same process as that of (Test Example1).
In the test, a rabbit corneal epithelial cell which had been cultured to subconfluent in a culture dish having a diameter of 10 cm was used. After the culture medium was removed, the bottom of the culture dish was washed two times using D-PBS, to this was added 1 mL of trypsin-EDTA, this was incubated at 37° C. for 5 minutes and thereby, the cell was peeled from the bottom of the culture dish. After incubation, 9 mL of MEM containing 10% FBS was added to the culture dish to stop the enzymatic reaction, and this was subjected to centrifugation at room temperature and 1,500 rpm for 5 minutes to obtain a corneal epithelial cell layer. To the resulting cell was added an appropriate amount of RCGM2 to a cell concentration of 1×10^5 cells/mL to suspend the cell. Each 64 μL of this cell suspension was dispensed in each well at the cell number per bottom area (0.32 cm^2) of the collagen-treated 96-well culture dish for tissue culture of […]. […] After 24 hours from cell seeding, the culture medium was discarded, and each 100 μL of the following culture media were freshly dispensed into each well of the culture dish. • [1] Only basal medium (no addition group) • [2] Basal medium+mEGF (final concentration: 10 ng/mL; positive control group) • [3] Basal medium+L-165041 (final concentration: 0.1 μM and 1 μM) • [4] Basal medium+GW-501516 (final concentration: 0.01 μM and 0.1 μM)
The culture supernatant of each well was removed every 48 hours from exchange of the culture medium containing a test substance, and each 100 μL of the freshly prepared culture medium was dispensed into each well.

For the compound `CCCc1c(OCCCOc2ccc(OCC(=O)O)cc2)ccc(C(C)=O)c1O` [L-165041, (4-(3-(4-acetyl-3-hydroxy-2-propyl)phenoxy)propoxyphenoxy)acetic acid], the “Cell proliferation (%)” value is given as 198.6 ± 26.7% (10^−6 M) and 242.5 ± 36.2% (10^−7 M).
